Reference: US12077503B2, “Substituted cyclic amides and their use as herbicides” (FMC CORPORATION, priority 2015, dated 2024)

How the values were obtained:
Format in all cases: in vivo
[1] = tested on: ivy-leaved morning glory (Ipomoea hederacea); assay: Test G Pre-Emergence Protocol; conditions: Ipomoea, pre-emergence, 312 h, evaluated after 13 days
How it was run: (§1)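 Spraying took place one day after sowing, at 15.625, 62.5 or 250 g/ha, using an acetone/water (50:50) spray solution containing 0.5% Tween 20. Plants were kept under glasshouse conditions (24/16 °C, 14 h light, 65% humidity, watered twice daily), and injury was rated 0–100 at day 13.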

[2] = tested on: barnyardgrass (Echinochloa crus-galli); assay: Test G Pre-Emergence Protocol; conditions: Echinochloa crus-galli, pre-emergence, 312 h, evaluated after 13 days
How it was run: as §1

[3] = tested on: giant foxtail (Setaria faberi); assay: Test G Pre-Emergence Protocol; conditions: Setaria faberi, pre-emergence, 312 h, evaluated after 13 days
How it was run: as §1

corn (Zea mays) [4] = assay: Test G Pre-Emergence Protocol; conditions: Zea mays, pre-emergence, 312 h, evaluated after 13 days
How it was run: as §1

[5] = tested on: velvetleaf (Abutilon theophrasti); assay: Test G Pre-Emergence Protocol; conditions: Abutilon theophrasti, pre-emergence, 312 h, evaluated after 13 days
How it was run: as §1

[6] = tested on: redroot pigweed (Amaranthus retroflexus); assay: Test G Pre-Emergence Protocol; conditions: Amaranthus retroflexus, pre-emergence, 312 h, evaluated after 13 days
How it was run: as §1

[7] = tested on: ivy-leaved morning glory (Ipomoea hederacea); assay: Test G Post-Emergence Protocol; conditions: Ipomoea, post-emergence, 312 h
How it was run: (§2)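 Values are percent visual injury at 13 days after treatment (0 none, 100 total). Treatment was a post-emergence spray at 15.625, 62.5 or 250 g/ha on 8-day-old pot plants kept at 24/16 °C.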

[8] = tested on: barnyardgrass (Echinochloa crus-galli); assay: Test G Post-Emergence Protocol; conditions: Echinochloa crus-galli, post-emergence, 312 h
How it was run: as §2

[9] = tested on: giant foxtail (Setaria faberi); assay: Test G Post-Emergence Protocol; conditions: Setaria faberi, post-emergence, 312 h
How it was run: as §2

corn (Zea mays) [10] = assay: Test G Post-Emergence Protocol; conditions: Zea mays, post-emergence, 312 h
How it was run: as §2

[11] = tested on: velvetleaf (Abutilon theophrasti); assay: Test G Post-Emergence Protocol; conditions: Abutilon theophrasti, post-emergence, 312 h
How it was run: as §2

[12] = tested on: redroot pigweed (Amaranthus retroflexus); assay: Test G Post-Emergence Protocol; conditions: Amaranthus retroflexus, post-emergence, 312 h
How it was run: as §2

CN1C[C@@H](c2ccc(C(F)(F)F)cc2)[C@H](C(=O)Nc2c[nH]nc2Cl)C1=O (racemic) [Compound 1633]
0%: pest or weed control at 15.625 g/ha ([1]; 15.625 g ai/ha, read-out: Morning-glory, Ivy-leaved damage rating (100=total damage to plant; 0=no damage to plant)) | pest or weed control at 62.5 g/ha ([1]; 62.5 g ai/ha, 100=total damage to plant, 0=no damage to plant, read-out: plant damage rating, Morningglory, Ivy-leaved) | pest or weed control at 250 g/ha ([1]; 250 g ai/ha, read-out: Morningglory, Ivy-leaved damage rating (100=total damage to plant; 0=no damage to plant)) | pest or weed control at 15.625 g/ha ([2]; 15.625 g ai/ha, read-out: Barnyard grass damage rating (100=total damage to plant; 0=no damage to plant)) | pest or weed control at 62.5 g/ha ([2]; 62.5 g ai/ha, 100=total damage to plant, 0=no damage to plant, read-out: plant damage rating, Barnyardgrass) | pest or weed control at 250 g/ha ([2]; 250 g ai/ha, read-out: Barnyardgrass damage rating (100=total damage to plant; 0=no damage to plant)) | pest or weed control at 15.625 g/ha ([3]; 15.625 g ai/ha, read-out: Foxtail, Giant damage rating (100=total damage to plant; 0=no damage to plant)) | pest or weed control at 62.5 g/ha ([3]; 62.5 g ai/ha, 100=total damage to plant, 0=no damage to plant, read-out: plant damage rating, Foxtail, Giant) | pest or weed control at 250 g/ha ([3]; 250 g ai/ha, read-out: Foxtail, Giant damage rating (100=total damage to plant; 0=no damage to plant)) | plant injury at 15.625 g/ha (corn (Zea mays) [4]; 15.625 g ai/ha, read-out: Corn damage rating (100=total damage to plant; 0=no damage to plant)) | plant injury at 62.5 g/ha (corn (Zea mays) [4]; 62.5 g ai/ha, 100=total damage to plant, 0=no damage to plant, read-out: plant damage rating, Corn) | plant injury at 250 g/ha (corn (Zea mays) [4]; 250 g ai/ha, read-out: Corn damage rating (100=total damage to plant; 0=no damage to plant)) | pest or weed control at 15.625 g/ha ([5]; 15.625 g ai/ha, read-out: Velvetleaf damage rating (100=total damage to plant; 0=no damage to plant)) | pest or weed control at 62.5 g/ha ([5]; 62.5 g ai/ha, 100=total damage to plant, 0=no damage to plant, read-out: plant damage rating, Velvetleaf) | pest or weed control at 250 g/ha ([5]; 250 g ai/ha, read-out: Velvetleaf damage rating (100=total damage to plant; 0=no damage to plant)) | pest or weed control at 15.625 g/ha ([6]; 15.625 g ai/ha, read-out: Pigweed, Redroot damage rating (100=total damage to plant; 0=no damage to plant)) | pest or weed control at 62.5 g/ha ([6]; 62.5 g ai/ha, 100=total damage to plant, 0=no damage to plant, read-out: plant damage rating, Pigweed, Redroot) | pest or weed control at 250 g/ha ([6]; 250 g ai/ha, read-out: Pigweed, Redroot damage rating (100=total damage to plant; 0=no damage to plant)) | pest or weed control at 15.625 g/ha ([7]; 15.625 g ai/ha, evaluated after 13 days (100=total damage to plant; 0=no damage to plant), read-out: Morningglory, Ivy-leaved damage rating) | pest or weed control at 62.5 g/ha ([7]; 62.5 g ai/ha, evaluated after 13 days, read-out: Morningglory, Ivy-leaved damage rating (100=total damage to plant; 0=no damage to plant)) | pest or weed control at 250 g/ha ([7]; 250 g ai/ha, evaluated after 13 days, read-out: damage to plant, Morningglory, Ivy-leaved (100=total damage to plant; 0=no damage to plant)) | pest or weed control at 15.625 g/ha ([8]; 15.625 g ai/ha, evaluated after 13 days (100=total damage to plant; 0=no damage to plant), read-out: Barnyardgrass damage rating) | pest or weed control at 62.5 g/ha ([8]; 62.5 g ai/ha, evaluated after 13 days, read-out: Barnyardgrass damage rating (100=total damage to plant; 0=no damage to plant)) | pest or weed control at 250 g/ha ([8]; 250 g ai/ha, evaluated after 13 days, read-out: damage to plant, Barnyardgrass (100=total damage to plant; 0=no damage to plant)) | pest or weed control at 15.625 g/ha ([9]; 15.625 g ai/ha, evaluated after 13 days (100=total damage to plant; 0=no damage to plant), read-out: Foxtail, Giant damage rating) | pest or weed control at 62.5 g/ha ([9]; 62.5 g ai/ha, evaluated after 13 days, read-out: Foxtail, Giant damage rating (100=total damage to plant; 0=no damage to plant)) | pest or weed control at 250 g/ha ([9]; 250 g ai/ha, evaluated after 13 days, read-out: damage to plant, Foxtail, Giant (100=total damage to plant; 0=no damage to plant)) | plant injury at 15.625 g/ha (corn (Zea mays) [10]; 15.625 g ai/ha, evaluated after 13 days (100=total damage to plant; 0=no damage to plant), read-out: Corn damage rating) | plant injury at 62.5 g/ha (corn (Zea mays) [10]; 62.5 g ai/ha, evaluated after 13 days, read-out: Corn damage rating (100=total damage to plant; 0=no damage to plant)) | plant injury at 250 g/ha (corn (Zea mays) [10]; 250 g ai/ha, evaluated after 13 days, read-out: damage to plant, Corn (100=total damage to plant; 0=no damage to plant)) | pest or weed control at 15.625 g/ha ([11]; 15.625 g ai/ha, evaluated after 13 days (100=total damage to plant; 0=no damage to plant), read-out: Velvetleaf damage rating) | pest or weed control at 62.5 g/ha ([11]; 62.5 g ai/ha, evaluated after 13 days, read-out: Velvetleaf damage rating (100=total damage to plant; 0=no damage to plant)) | pest or weed control at 250 g/ha ([11]; 250 g ai/ha, evaluated after 13 days, read-out: damage to plant, Velvetleaf (100=total damage to plant; 0=no damage to plant)) | pest or weed control at 15.625 g/ha ([12]; 15.625 g ai/ha, evaluated after 13 days (100=total damage to plant; 0=no damage to plant), read-out: Pigweed, Redroot damage rating) | pest or weed control at 62.5 g/ha ([12]; 62.5 g ai/ha, evaluated after 13 days, read-out: Pigweed, Redroot damage rating (100=total damage to plant; 0=no damage to plant)) | pest or weed control at 250 g/ha ([12]; 250 g ai/ha, evaluated after 13 days, read-out: damage to plant, Pigweed, Redroot (100=total damage to plant; 0=no damage to plant))
